How the values were obtained:
Assay in all cases: Kinase profiling in a biochemical assay panel (mobility shift assays and ELISA), %-inhibition at 1 μM; selectivity entropy
[1] = target: T1, panel of more than 300 wild-type and mutant kinases (313 kinase panel) (Homo sapiens, UniProt P36888)
T1 sequence (P36888 27-993): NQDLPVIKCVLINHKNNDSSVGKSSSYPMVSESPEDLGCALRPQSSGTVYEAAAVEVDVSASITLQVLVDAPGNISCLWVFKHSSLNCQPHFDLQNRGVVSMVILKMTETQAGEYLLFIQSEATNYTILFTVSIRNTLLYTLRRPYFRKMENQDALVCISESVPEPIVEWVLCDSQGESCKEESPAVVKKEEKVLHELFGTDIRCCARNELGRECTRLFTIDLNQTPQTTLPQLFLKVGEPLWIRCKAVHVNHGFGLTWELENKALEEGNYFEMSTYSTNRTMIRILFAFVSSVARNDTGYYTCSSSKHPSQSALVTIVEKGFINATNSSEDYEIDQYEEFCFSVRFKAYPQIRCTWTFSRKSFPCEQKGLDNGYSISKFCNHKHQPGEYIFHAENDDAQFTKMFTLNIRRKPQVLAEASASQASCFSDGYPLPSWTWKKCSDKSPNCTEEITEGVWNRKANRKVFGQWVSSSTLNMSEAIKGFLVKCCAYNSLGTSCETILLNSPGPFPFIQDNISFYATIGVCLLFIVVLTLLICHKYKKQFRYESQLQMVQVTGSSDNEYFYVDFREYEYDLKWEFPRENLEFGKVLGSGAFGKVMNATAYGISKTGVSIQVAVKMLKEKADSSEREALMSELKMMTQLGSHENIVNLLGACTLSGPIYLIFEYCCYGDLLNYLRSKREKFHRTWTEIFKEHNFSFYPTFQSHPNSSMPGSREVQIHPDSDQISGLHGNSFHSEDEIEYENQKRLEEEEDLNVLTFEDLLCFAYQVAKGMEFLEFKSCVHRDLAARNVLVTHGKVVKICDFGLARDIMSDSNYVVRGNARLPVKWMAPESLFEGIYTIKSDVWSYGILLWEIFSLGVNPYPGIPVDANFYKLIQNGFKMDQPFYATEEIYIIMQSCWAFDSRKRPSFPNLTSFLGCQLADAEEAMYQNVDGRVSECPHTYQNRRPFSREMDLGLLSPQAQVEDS

[2] = target: panel of more than 300 wild-type and mutant kinases (313 kinase panel) (Homo sapiens, UniProt P10721, T670I)
[3] = target: panel of more than 300 wild-type and mutant kinases (313 kinase panel) (Homo sapiens, UniProt P51617); conditions: kinase IRAK1; compound at 1 μM
[4] = target: panel of more than 300 wild-type and mutant kinases (313 kinase panel) (Homo sapiens, UniProt P49137); conditions: kinase MAPKAPK2; compound at 1 μM
[5] = target: panel of more than 300 wild-type and mutant kinases (313 kinase panel) (Homo sapiens, UniProt Q9Y463); conditions: kinase DYRK1B; compound at 1 μM
[6] = target: panel of more than 300 wild-type and mutant kinases (313 kinase panel) (Homo sapiens, UniProt P45984); conditions: kinase JNK2; compound at 1 μM
[7] = target: panel of more than 300 wild-type and mutant kinases (313 kinase panel) (Homo sapiens, UniProt P22607); conditions: kinase FGFR3; compound at 1 μM
[8] = target: panel of more than 300 wild-type and mutant kinases (313 kinase panel) (Homo sapiens, UniProt P68400); conditions: kinase CK2α1/β; 1 μM compound
[9] = target: panel of more than 300 wild-type and mutant kinases (313 kinase panel) (Homo sapiens, UniProt P07947); conditions: kinase YES; compound at 1 μM
[10] = target: panel of more than 300 wild-type and mutant kinases (313 kinase panel) (Homo sapiens, UniProt P29597)
[11] = kinase KIT(T670I), compound at 1 μM

Sequence of panel of more than 300 wild-type and mutant kinases (313 kinase panel) (Homo sapiens, UniProt P07947) (P07947 whole entry, change not shown): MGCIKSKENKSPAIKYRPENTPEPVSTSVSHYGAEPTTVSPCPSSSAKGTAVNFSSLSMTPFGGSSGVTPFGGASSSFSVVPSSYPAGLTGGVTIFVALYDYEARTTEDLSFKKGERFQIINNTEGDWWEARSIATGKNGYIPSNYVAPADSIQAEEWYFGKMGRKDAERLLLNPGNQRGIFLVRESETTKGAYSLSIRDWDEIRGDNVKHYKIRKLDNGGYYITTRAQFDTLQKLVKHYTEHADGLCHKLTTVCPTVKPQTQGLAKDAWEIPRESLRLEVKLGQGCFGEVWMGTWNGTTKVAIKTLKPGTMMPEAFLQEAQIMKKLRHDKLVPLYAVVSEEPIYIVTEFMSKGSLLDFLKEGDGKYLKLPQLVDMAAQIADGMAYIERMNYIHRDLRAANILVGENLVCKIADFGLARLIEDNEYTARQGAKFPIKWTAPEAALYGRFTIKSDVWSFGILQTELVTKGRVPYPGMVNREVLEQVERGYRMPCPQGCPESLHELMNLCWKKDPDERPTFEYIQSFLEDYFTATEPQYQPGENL
Sequence of panel of more than 300 wild-type and mutant kinases (313 kinase panel) (Homo sapiens, UniProt P10721, T670I) (P10721 26-976 T670I): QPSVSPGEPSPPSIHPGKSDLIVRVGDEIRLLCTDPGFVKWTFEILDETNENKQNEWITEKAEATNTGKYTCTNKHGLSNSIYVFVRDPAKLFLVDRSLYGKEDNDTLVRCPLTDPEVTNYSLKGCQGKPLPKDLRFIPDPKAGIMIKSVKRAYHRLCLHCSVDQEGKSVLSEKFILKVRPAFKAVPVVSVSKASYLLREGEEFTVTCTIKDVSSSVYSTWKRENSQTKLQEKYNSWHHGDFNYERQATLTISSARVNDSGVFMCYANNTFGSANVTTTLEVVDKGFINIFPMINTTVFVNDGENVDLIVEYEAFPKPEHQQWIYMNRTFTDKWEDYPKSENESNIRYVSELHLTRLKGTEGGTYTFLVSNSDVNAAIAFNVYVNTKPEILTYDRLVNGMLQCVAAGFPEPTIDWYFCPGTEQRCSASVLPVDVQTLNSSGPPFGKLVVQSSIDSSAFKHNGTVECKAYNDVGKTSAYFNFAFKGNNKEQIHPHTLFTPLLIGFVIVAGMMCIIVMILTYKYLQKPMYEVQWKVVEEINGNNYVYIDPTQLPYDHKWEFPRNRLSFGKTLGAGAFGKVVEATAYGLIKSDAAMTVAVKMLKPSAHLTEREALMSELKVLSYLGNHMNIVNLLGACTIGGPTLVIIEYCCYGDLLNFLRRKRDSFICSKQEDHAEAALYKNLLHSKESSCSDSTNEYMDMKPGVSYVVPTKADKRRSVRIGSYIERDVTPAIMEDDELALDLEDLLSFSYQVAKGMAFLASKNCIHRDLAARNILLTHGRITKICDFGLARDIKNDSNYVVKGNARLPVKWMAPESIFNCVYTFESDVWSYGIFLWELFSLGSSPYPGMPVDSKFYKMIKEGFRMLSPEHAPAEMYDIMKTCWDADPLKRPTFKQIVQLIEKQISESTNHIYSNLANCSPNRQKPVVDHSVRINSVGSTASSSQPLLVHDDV
Sequence of panel of more than 300 wild-type and mutant kinases (313 kinase panel) (Homo sapiens, UniProt P22607) (P22607 23-806, change not shown): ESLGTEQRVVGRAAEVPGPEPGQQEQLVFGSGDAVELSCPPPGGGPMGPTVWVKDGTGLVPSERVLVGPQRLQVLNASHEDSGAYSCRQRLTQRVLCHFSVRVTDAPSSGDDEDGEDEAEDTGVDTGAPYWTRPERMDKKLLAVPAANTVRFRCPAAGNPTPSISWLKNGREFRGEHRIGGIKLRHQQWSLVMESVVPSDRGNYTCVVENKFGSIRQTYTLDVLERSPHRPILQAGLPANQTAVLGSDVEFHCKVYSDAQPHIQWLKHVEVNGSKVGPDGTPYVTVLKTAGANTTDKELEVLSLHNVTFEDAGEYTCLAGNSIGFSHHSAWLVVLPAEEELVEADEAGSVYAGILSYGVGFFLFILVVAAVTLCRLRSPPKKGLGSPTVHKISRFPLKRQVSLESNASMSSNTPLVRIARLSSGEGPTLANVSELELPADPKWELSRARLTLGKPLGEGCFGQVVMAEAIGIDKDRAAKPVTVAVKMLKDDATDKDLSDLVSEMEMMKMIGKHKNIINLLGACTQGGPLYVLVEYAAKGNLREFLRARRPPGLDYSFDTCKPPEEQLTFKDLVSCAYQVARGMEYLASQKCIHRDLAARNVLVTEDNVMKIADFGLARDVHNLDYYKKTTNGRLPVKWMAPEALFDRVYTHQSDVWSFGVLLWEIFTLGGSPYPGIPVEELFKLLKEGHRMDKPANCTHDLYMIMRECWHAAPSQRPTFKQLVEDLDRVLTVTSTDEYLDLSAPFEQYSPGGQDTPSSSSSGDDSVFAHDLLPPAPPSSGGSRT
Sequence of panel of more than 300 wild-type and mutant kinases (313 kinase panel) (Homo sapiens, UniProt P45984) (P45984 whole entry, change not shown): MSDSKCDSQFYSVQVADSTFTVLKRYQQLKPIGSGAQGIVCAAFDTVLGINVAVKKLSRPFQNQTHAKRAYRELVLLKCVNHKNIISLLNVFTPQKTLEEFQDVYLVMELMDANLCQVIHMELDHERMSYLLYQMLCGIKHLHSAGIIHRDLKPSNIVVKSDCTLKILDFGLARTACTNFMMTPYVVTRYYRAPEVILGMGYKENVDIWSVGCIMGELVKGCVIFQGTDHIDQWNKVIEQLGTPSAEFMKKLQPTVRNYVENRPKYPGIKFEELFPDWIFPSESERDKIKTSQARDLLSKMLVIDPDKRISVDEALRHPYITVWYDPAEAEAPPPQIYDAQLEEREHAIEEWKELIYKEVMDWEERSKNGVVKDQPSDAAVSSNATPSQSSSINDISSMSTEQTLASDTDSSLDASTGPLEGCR
Sequence of panel of more than 300 wild-type and mutant kinases (313 kinase panel) (Homo sapiens, UniProt Q9Y463) (Q9Y463 whole entry, change not shown): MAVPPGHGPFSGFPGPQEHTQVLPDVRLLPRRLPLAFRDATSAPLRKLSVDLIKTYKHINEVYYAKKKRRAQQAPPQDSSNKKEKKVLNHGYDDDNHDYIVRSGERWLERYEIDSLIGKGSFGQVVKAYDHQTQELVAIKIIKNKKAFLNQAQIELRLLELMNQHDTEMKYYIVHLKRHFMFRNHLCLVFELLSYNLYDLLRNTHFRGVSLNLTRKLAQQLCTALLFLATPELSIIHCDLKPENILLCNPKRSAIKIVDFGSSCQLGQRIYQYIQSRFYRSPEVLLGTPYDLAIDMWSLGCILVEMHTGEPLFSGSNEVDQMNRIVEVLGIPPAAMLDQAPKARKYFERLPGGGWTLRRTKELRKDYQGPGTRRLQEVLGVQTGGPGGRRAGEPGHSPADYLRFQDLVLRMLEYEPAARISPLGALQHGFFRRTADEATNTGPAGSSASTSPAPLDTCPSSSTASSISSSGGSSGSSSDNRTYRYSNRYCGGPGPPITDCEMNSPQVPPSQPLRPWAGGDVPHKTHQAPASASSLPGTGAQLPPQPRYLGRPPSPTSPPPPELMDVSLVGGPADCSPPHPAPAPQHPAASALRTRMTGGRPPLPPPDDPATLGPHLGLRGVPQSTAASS
Sequence of panel of more than 300 wild-type and mutant kinases (313 kinase panel) (Homo sapiens, UniProt P29597) (P29597 whole entry, stated change not applied): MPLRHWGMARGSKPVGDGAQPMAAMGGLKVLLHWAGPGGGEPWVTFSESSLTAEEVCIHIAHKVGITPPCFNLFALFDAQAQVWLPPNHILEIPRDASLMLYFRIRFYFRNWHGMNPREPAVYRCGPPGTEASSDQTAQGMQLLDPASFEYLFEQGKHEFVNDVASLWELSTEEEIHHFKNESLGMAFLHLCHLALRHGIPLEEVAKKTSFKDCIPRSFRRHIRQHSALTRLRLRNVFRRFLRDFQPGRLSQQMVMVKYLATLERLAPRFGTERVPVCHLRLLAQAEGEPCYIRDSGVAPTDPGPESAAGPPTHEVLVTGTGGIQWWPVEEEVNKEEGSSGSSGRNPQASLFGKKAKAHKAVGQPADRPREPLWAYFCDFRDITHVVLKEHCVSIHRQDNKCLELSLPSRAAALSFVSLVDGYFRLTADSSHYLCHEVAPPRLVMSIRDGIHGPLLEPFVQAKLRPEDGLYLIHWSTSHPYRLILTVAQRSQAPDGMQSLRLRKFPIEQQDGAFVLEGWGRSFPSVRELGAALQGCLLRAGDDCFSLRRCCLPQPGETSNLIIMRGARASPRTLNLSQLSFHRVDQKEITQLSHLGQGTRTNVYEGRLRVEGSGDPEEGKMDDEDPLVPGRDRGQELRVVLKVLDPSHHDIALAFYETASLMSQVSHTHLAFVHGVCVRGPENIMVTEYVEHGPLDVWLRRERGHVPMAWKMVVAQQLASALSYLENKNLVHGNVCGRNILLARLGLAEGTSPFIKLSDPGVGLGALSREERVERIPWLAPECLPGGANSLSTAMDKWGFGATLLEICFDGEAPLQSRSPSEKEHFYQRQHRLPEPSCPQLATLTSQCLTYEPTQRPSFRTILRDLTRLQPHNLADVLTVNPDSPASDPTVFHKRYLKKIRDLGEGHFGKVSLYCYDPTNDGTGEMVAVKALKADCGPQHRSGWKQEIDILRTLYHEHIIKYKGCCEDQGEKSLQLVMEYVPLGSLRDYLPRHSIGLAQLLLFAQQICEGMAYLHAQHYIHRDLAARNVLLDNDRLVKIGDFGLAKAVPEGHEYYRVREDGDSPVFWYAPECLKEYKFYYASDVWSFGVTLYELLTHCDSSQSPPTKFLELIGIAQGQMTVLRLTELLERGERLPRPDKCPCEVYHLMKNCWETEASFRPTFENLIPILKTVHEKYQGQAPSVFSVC
Sequence of panel of more than 300 wild-type and mutant kinases (313 kinase panel) (Homo sapiens, UniProt P49137) (P49137 whole entry, change not shown): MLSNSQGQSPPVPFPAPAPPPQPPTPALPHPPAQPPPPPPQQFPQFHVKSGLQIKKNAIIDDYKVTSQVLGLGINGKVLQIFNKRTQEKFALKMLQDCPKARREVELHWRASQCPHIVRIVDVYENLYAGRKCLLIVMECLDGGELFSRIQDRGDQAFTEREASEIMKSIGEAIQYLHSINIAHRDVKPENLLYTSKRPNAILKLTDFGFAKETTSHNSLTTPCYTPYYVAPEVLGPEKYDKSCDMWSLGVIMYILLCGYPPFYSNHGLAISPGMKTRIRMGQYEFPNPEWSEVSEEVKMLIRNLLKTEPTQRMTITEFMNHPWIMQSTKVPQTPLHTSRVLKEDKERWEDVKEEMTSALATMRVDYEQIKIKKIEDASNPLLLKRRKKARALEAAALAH

Compound	%-inhibition of FLT3 ([1]; kinase FLT3, compound at 1 μM) [%]	%-inhibition of KIT(T670I) [2, 11] [%]	%-inhibition of IRAK1 [3] [%]	%-inhibition of MAPKAPK2 [4] [%]	%-inhibition of DYRK1B [5] [%]	%-inhibition of JNK2 [6] [%]	%-inhibition of FGFR3 [7] [%]	%-inhibition, CK2α1/β [8] [%]	%-inhibition of YES [9] [%]	%-inhibition of TYK2 ([10]; kinase TYK2, compound at 1 μM) [%]	%-inhibition of FLT3 ([1]; 1 µM) [%]	%-inhibition of KIT(T670I) ([2]; 1 µM) [%]	%-inhibition of TYK2 ([10]; 1 µM) [%]
O=S(=O)(c1cccc2cnccc12)N1CCCNCC1 [fasudil]	22	0.568	3.42	-13	4.76	-5	-2	-4	1.18	6	–	–	–
Cc1cn(-c2cc(NC(=O)c3ccc(C)c(Nc4nccc(-c5cccnc5)n4)c3)cc(C(F)(F)F)c2)cn1 [nilotinib]	–	–	8	2.56	-7.58	9	-11	3.23	44	–	60	18	-1.71
CC(=O)Nc1cccc(-n2c(=O)n(C3CC3)c(=O)c3c(Nc4ccc(I)cc4F)n(C)c(=O)c(C)c32)c1 [trametinib]	20	-3	6	-0.335	3.34	-4.73	-5.68	-3.4	-1.63	2.16	–	–	–

From publication PMC3961306, “Comparison of the Cancer Gene Targeting and Biochemical Selectivities of All Targeted Kinase Inhibitors Approved for Clinical Use” (PLoS ONE, 2014)
